Read-outs that look alike come from different tables or passages of the source.
What was measured:
rabbits = conditions: dose about 4 mg SeS2, concentration up to 2.5 wt. %, ointment applied over the eyelid margin
patients [1] = conditions: in vivo
Procedure: In a first study patients were instructed to dose in both the evening, between visits, and in the daytime during regular scheduled clinic visits as part of the study protocol. Study patients received a 2-week run-in on a placebo which was administered twice weekly for a period of two weeks.
Adverse events comprise a feeling of grittiness, foreign body feeling, stinging, blurry vision, redness, tired eyes, water eyes, irritation, lid abnormalities, burning, corneal abrasion, photophobia, staining, or dry eye disorder (DED).

human subject = tested on: human subject
Procedure: In most instances, the treatment is applied on a biweekly basis, however some patients move to daily application based on prespecified protocol criteria. Because the ointment-based composition is known to mix with tear fluid and cause blurry vision, individuals in this study are advised to apply the treatment prior to bed so as to avoid risks associated with reduced vision acuity. […] The in-office applications are conducted at specific, pre-determined time points. In these instances, the treatment is not applied before bed but rather is performed during daylight hours.

patients [2] = tested on: patients
Text: In a clinical study three different concentrations were used; 0.1 wt. %, (10 subjects) 0.5 wt. % (12 subjects) and 1 wt. % (26 subjects).

seborrheic blepharitis = conditions: cited from earlier work
[3] = tested on: meibomian gland disorder (MGD) patients; conditions: twice a week, 3 month time point
Procedure: The drug was applied twice a week and final evaluation was done at the 3 month time point in which the primary outcome of Meibomian Gland Score (MGS) was assessed.

[4] = in vivo; cited from earlier work

## selenium disulfide [SeS2]
rabbits
  tolerability: well tolerated
Patients [1]
  reduction in the incidence of ocular adverse events: 75%
  reduction of rate of ocular adverse events (ocular AE): at least 50%
Human subject; at least one patient, 1 wt. %, one month of treatment
  health outcomes by OSDI, VAS and SPEED: improved health outcomes
Human subject; in vivo
  keratitis: Keratitis is not observed
  patients noting symptoms of keratitis: four
Patients [2]; human, in vivo
  development of keratitis: no development of keratitis
  occurrence of keratitis with bedtime applications: without a single occurrence of keratitis
  subjects who developed keratitis or keratitis related symptoms: four
Patients [2]; one patient, 1 wt. %, first month, twice weekly at home before bedtime
  total OSDI, VAS and SPEED: significant improvement
Seborrheic blepharitis; SeS2 0.5%, conclusion of most investigators
  efficacy in treating seborrheic blepharitis: effective
Seborrheic blepharitis; in vivo
  adverse events following topical ocular use: superficial punctate keratitis and conjunctivitis
  safe concentration of ophthalmic preparation for use in humans: 0.5%
[3]; 9 patients applying with finger
  average change from baseline in Meibomian Gland Score (MGS): 10 (+/−8.2)
[3]; 13 patients using the applicator (swab)
  average change from baseline in Meibomian Gland Score (MGS): 2.3 (+/−4.4)
[4]
  adverse effect of shampooing: diffuse hair loss
  contact dermatitis or photo-contact dermatitis in tinea versicolor treatment: None of the investigators encountered a single case
  skin irritant effect: can produce contact dermatitis
  skin reaction after shampoo application: circumscribed eczematous plaques on the light-exposed areas
  time to resolution of hair loss after discontinuance: 1-2 weeks

From patent US12697352B2, “Instructions for composition and sensitivity” (Azura Ophthalmics Ltd., priority 2020, dated 2026)
